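Following 48 hours of exposure in 96-well plates, responses at five concentrations were used to interpolate endpoints linearly. GI50 marks 50% less growth.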 Calls of active or inactive are those of the source. Rule as the data show it: active = GI50 up to about 1.1 µM and inactive = higher.
How the values were obtained:
Assay in all cases: DTP human tumour cell line panel, 48 h
[1] = test system: EKVX
[2] = test system: HOP-92
[3] = test system: TK-10
[4] = test system: A549
[5] = test system: LOX IMVI
[6] = test system: SK-MEL-2
[7] = test system: NCI-H522
[8] = test system: HL-60
[9] = test system: HCC 2998
[10] = test system: OVCAR-5
[11] = test system: NCI-H460
[12] = test system: UACC-257
[13] = test system: OVCAR-8
[14] = test system: SK-OV-3
[15] = test system: K562
[16] = test system: ACHN
[17] = test system: NCI/ADR-RES
[18] = test system: UO-31
[19] = test system: SK-MEL-28
[20] = test system: MDA-MB-435

SMILES | GI50 [1] | GI50 [2] | GI50 [3] | GI50 [4] | GI50 [5] | GI50 [6] | GI50 [7] | GI50 [8] | GI50 [9] | GI50 [10] | GI50 [11] | GI50 [12] | GI50 [13] | GI50 [14] | GI50 [15] | GI50 [16] | GI50 [17] | GI50 [18] | GI50 [19] | GI50 [20]
C=CCOC(=O)c1c(C)[n+]([O-])c2cc(Cl)c(Cl)cc2[n+]1[O-] | 18.8 µM (inactive) | 13.7 µM (inactive) | 29.4 µM (inactive) | 23 µM (inactive) | 15.5 µM (inactive) | 13.6 µM (inactive) | 12.4 µM (inactive) | 16.6 µM (inactive) | 12.9 µM (inactive) | 30.4 µM (inactive) | 18.7 µM (inactive) | 18.7 µM (inactive) | 19.4 µM (inactive) | 28.8 µM (inactive) | 27.9 µM (inactive) | 23.6 µM (inactive) | 20.6 µM (inactive) | 23.3 µM (inactive) | 16.1 µM (inactive) | 19.8 µM (inactive)
COC(=O)c1ccc2c(c1)CC1(C2)Cc2ccccc2C1=O (stereo not given) | 29.5 µM (inactive) | 18.1 µM (inactive) | 31 µM (inactive) | 53.1 µM (inactive) | 22.4 µM (inactive) | 27.4 µM (inactive) | 25.3 µM (inactive) | 26.5 µM (inactive) | 54.5 µM (inactive) | 72.3 µM (inactive) | > 100 µM (inactive) | 15.1 µM (inactive) | 38.5 µM (inactive) | 68.4 µM (inactive) | 30.3 µM (inactive) | 29.7 µM (inactive) | 27.6 µM (inactive) | 22.4 µM (inactive) | 14.8 µM (inactive) | 24.5 µM (inactive)
COc1ccc(Cc2nc3cc(C(F)(F)F)ccc3n2CCCN(C)C)cc1 | 23.6 µM (inactive) | 26.5 µM (inactive) | 20.7 µM (inactive) | 17.3 µM (inactive) | 19.8 µM (inactive) | 19 µM (inactive) | 14.8 µM (inactive) | 11.8 µM (inactive) | 3.93 µM (inactive) | 22.9 µM (inactive) | 20.3 µM (inactive) | 17.1 µM (inactive) | 30.6 µM (inactive) | 16.7 µM (inactive) | 14.4 µM (inactive) | 27.2 µM (inactive) | 14.6 µM (inactive) | 0.246 µM (active) | 18 µM (inactive) | 16.1 µM (inactive)
c1ccc(-c2c3c(nc4c2CC[C@H]4NC2=NCCN2)[C@@H](NC2=NCCN2)CC3)cc1 | > 100 µM (inactive) | 20.7 µM (inactive) | > 100 µM (inactive) | > 87.9 µM (inactive) | 59 µM (inactive) | > 100 µM (inactive) | > 100 µM (inactive) | 11.2 µM (inactive) | 27 µM (inactive) | > 100 µM (inactive) | 29.2 µM (inactive) | > 90.6 µM (inactive) | > 100 µM (inactive) | > 100 µM (inactive) | > 100 µM (inactive) | > 100 µM (inactive) | > 100 µM (inactive) | > 100 µM (inactive) | > 100 µM (inactive) | > 100 µM (inactive)
[O-]/[N+](=C\c1ccccc1OC(=S)S)c1ccc(Cl)cc1 | 25.7 µM (inactive) | 2.87 µM (inactive) | > 100 µM (inactive) | > 100 µM (inactive) | 14.9 µM (inactive) | 20 µM (inactive) | 16.8 µM (inactive) | 0.22 µM (active) | 45.3 µM (inactive) | 21.2 µM (inactive) | 0.292 µM (active) | 21.5 µM (inactive) | 8.24 µM (inactive) | > 100 µM (inactive) | 10.6 µM (inactive) | 20.6 µM (inactive) | 18.5 µM (inactive) | 19.8 µM (inactive) | 3.57 µM (inactive) | 15.7 µM (inactive)
